# According to US11807627B2, “Morphic forms of complement factor D inhibitors” (priority 2018, dated 2023):
# Columns and labels:
# Assay type in all cases: physicochemical
# [1] = Thermogravimetric/differential thermal analysis (TG/DTA)
# Protocol: Approximately, 5 mg of material was weighed into an open aluminium pan and loaded into a simultaneous thermogravimetric/differential thermal analyzer (TG/DTA) and held at room temperature. The sample was then heated at a rate of 10° C./min from 20° C. to 400° C. during which time the change in sample weight occurred was recorded along with any differential thermal events (DTA). Nitrogen was used as the purge gas at a flow rate of 300 cm^3/min.
# [2] = Drying of isolated samples at 50° C. for approximately 24 hours
# Protocol: Samples produced from thermal cycling, cooling and evaporation experiments were dried at 50° C. for approximately 24 hours to assess any de-solvation/dehydration. From temperature cycling experiments, 3 samples converted upon drying: • Acetonitrile sample converted from Form J to amorphous; • 40% Ethanol/60% Water (% v/v) converted from Form N to Form P; and • Methanol sample converted from Form O to amorphous.
# [3] = Polarized light microscopy (PLM); details: Table 27A
# Protocol: The presence of crystallinity (birefringence) was determined using an Olympus BX50 microscope, equipped with cross-polarizing lenses and a Motic camera. Images were captured using Motic Images Plus 2.0. All images were recorded using the 20×objective, unless otherwise stated. All samples were prepared using silicone oil and covered with a cover slip before PLM analysis was completed.
# [4] = Storage stability of Compound 3 forms (80° C., 40° C./75% RH, 25° C./60% RH, ambient); details: 1 week
# Protocol: No changes by XRPD or HPLC purity were observed when the material was stored at 40° C./75% RH, 80° C. or under ambient conditions.
# [5] = Variable temperature XRPD (VT-XRPD); details: Table 27A
# Protocol: VT-XRPD analysis was carried out on a Philips X'Pert Pro Multipurpose diffractometer equipped with a temperature chamber. The samples were scanned between 4 and 35.99°2θ using Cu K radiation (α1λ=1.54060 Å; α2=1.54443 Å; β=1.39225 Å; α1: α2 ratio=0.5) running in Bragg-Brentano geometry (step size 0.008°2θ) using 40 kV/40 mA generator settings.
# [6] = Differential scanning calorimetry (DSC)
# Protocol: DSC was performed using a TA Instruments 2920 or Q2000 differential scanning calorimeter. Temperature calibration was performed using NIST-traceable indium metal. The sample was placed into an aluminum DSC pan, covered with a lid, and the weight was accurately recorded. A weighed aluminum pan configured as the sample pan was placed on the reference side of the cell. The method code on the thermogram is an abbreviation for the start and end temperature as well as the heating rate; e.g., -30-250-10 means “from −30° C. to 250° C., at 10° C./min”. The following table summarizes the abbreviations used in each image for pan configurations: […]
# [7] = Hygroscopicity / dynamic vapour sorption (DVS)
# Protocol: (§1) Approximately, 10-20 mg of sample were placed into a mesh vapour sorption balance pan and loaded into a DVS Intrinsic dynamic vapour sorption balance by Surface Measurement Systems. The sample was subjected to a ramping profile from 40-90% relative humidity (RH) at 10% increments, maintaining the sample at each step until a stable weight had been achieved (dm/dt 0.004%, minimum step length 30 minutes, maximum step length 500 minutes) at 25° C. After completion of the sorption cycle, the sample was dried using the same procedure to 0% RH and then a second sorption cycle back to 40% RH. Two cycles were performed. The weight change during the sorption/desorption cycles were plotted, allowing for the hygroscopic nature of the sample to be determined. XRPD analysis was then carried out on any solid retained.
# as §1, with “Approximately, 10” for “Approximately, 10-20”, “sample was” for “sample were”, “a DVS-1” for “a DVS Intrinsic”
# [8] = Solubility in selected media (FaSSIF, FeSSIF, FaSSGF, pH 4 citrate, pH 6.8 phosphate)
# Protocol: Solubility within selected media (FaSSIF, FeSSIF, FaSSGF, pH 4 citrate and pH 6.8 phosphate) was measured to be <0.01 mg/mL.
# The pH 4 citrate buffer was prepared by dissolving sodium citrate (987 mg) and citric acid (1.28 g) in 100 mL H2O. The pH was adjusted to 4. The pH 6.8 phosphate buffer was prepared by dissolving dibasic sodium phosphate dihydrate (873 mg) and monobasic sodium phosphate monohydrate (708 mg) in 100 mL H2O. The pH was adjusted to 6.8. The FaSSIF media was prepared with sodium hydroxide (108 mg), sodium chloride (1.55 g) and monobasic sodium phosphate dihydrate (1.12 g) in H2O (0.25 L) and the pH adjusted to 6.5. FaSSIF/FeSSIF/FaSSGF (0.56 g) was dissolved in the buffer and mixed until opalescent. The FeSSIF media was prepared by dissolving sodium hydroxide (1.01 g), sodium chloride (2.96 g) and glacial acetic acid (2.97 g) in H2O (0.25 L) and the pH adjusted to pH 5. FaSSIF/FeSSIF/FaSSGF (2.81 g) was dissolved in the buffer and thoroughly mixed. The FaSSGF media was prepared by dissolving FaSSIF/FeSSIF/FaSSGF (0.06 g) in a solution of sodium chloride (2.00 g) dissolved in H2O (1 L) and mixing thoroughly.
compound,measurement,setting,value
CC(=O)c1nn(CC(=O)N2[C@H](C(=O)Nc3nc(Br)ccc3C)C[C@@]3(C)C[C@@H]23)c2ccc(-c3cnc(C)nc3)cc12 [Form J],Onset Temp: Solvent loss,[1]; Table 22B,"loss 129.3, ° C."
same,Onset Temp: melting transition,[1]; Table 22B,200.0 °C
same,TG/DTA: Melting,[1]; Table 27A,melting 206.7 °C
same,TG/DTA: Solvent loss,[1]; Table 27A,"Solvent loss 138.5° C.,"
same,Mass loss within the TG trace,[1]; up to 150° C.,2.2 wt %
same,Form after drying (de-solvation/dehydration),[2],amorphous
same,PLM,[3],Birefringent rods
same,1 week stability: 40° C./75% RH HPLC (uncapped),[4],99.8% (by relative area)
same,1 week stability: 80° C. HPLC (capped),[4],99.9% (by relative area)
same,1 week stability: 80° C. XRPD (capped),[4],Pattern D
same,1 week stability: Ambient conditions HPLC (capped),[4],99.9% (by relative area)
same,VT-XRPD: Form J de-solvated to Pattern G,[5],Pattern G (120° C.)
same,Thermal events from SSCI report: Exothermic base line shifts,[6]; SSCI report,"~134° C., apparent"
same,Thermal events from SSCI report: apparent melt onset,[6]; SSCI report,melt onset 83 °C
same,DSC: Melting,"[6]; onset, Table 27A",melting 202.9 °C
same,DSC: Solvent loss,"[6]; onset, Table 27A",Solvent loss 138.5 °C
same,DSC: Melting (peak),"[6]; peak, Table 27A",(peak 213.3° C.)
same,DSC: Solvent loss (peak),"[6]; peak, Table 27A",(peak 152.4° C.)
same,DVS analysis: hygroscopic nature,[7]; 25° C.,hygroscopic
same,DVS: hygroscopicity,[7]; Table 27A,Hygroscopic first
same,XRPD post DVS,[7]; Table 27A,Form B
same,Post-DVS XRPD analysis,[7]; after DVS,pattern D
same,DVS uptake,[7]; first sorption cycle,6.9 wt %
same,DVS uptake as equivalents of water,[7]; first sorption cycle,2.5 equiv. water
same,DVS uptake,[7]; second sorption cycle,5.2 wt %
same,DVS uptake as equivalents of water,[7]; second sorption cycle,1.8 equiv. water
same,solubility,[8]; FaSSGF,<10 µg/mL
same,solubility,[8]; FaSSIF,<10 µg/mL
same,solubility,[8]; FeSSIF,<10 µg/mL
